Experimental data as given in patent publication US6548079B1, “Moxifloxacin formulation containing common salt” (Bayer Aktiengesellschaft, priority 1999, dated 2003).
Structures can show the parent of a compound that is named as a salt.

How the values were obtained:
[1] = Solubility of moxifloxacin HCl in the presence of sodium chloride; assay type: physicochemical; details: for Solubility moxifloxacin HCl: 5° C.; for solubility thermodynamic: sodium chloride solution, 5 °C, thermodynamic from solid
Description: For a dosage range of from 100 mg to 1000 mg at active compound concentrations of from 0.04% to 0.4% (w/v) of moxifloxacin hydrochloride, it is thus possible to adjust the osmotic pressure to physiological conditions by adding from 0.4% to 0.9% of sodium chloride. […] This ensures that, even on short-term cold storage, there is no precipitation of the active compound as a result of exceeding the saturation solubilities. [table]

physchem = details: water (aqueous solution without NaCl)

Compound: COc1c(N2C[C@@H]3CCCN[C@@H]3C2)c(F)cc2c(=O)c(C(=O)O)cn(C3CC3)c12 [moxifloxacin HCl, 1-cyclopropyl-7-([S,S]-2,8-diazabicyclo[4.3.0]non-8-yl)-6-fluoro-1,4-dihydro-8-methoxy-4-oxo-3-quinolonecarboxylic acid]
- Solubility moxifloxacin HCl ([1]; NaCl 0.7 % (w/v)): 0.2 % (w/v)
- Solubility moxifloxacin HCl ([1]; NaCl 0.8 % (w/v)): 0.2 % (w/v)
- solubility thermodynamic ([1]; saline or isotonic, NaCl 0.1 % (w/v)): 11000 µg/mL
- solubility thermodynamic ([1]; saline or isotonic, NaCl 0.2 % (w/v)): 7000 µg/mL
- solubility thermodynamic ([1]; saline or isotonic, NaCl 0.3 % (w/v)): 5000 µg/mL
- solubility thermodynamic ([1]; saline or isotonic, NaCl 0.4 % (w/v)): 4000 µg/mL
- solubility thermodynamic ([1]; saline or isotonic, NaCl 0.5 % (w/v)): 3000 µg/mL
- solubility thermodynamic ([1]; saline or isotonic, NaCl 0.6 % (w/v)): 2000 µg/mL
- solubility thermodynamic ([1]; saline or isotonic, NaCl 0.9 % (w/v)): 1000 µg/mL
- solubility thermodynamic ([1]; water, NaCl 0 % (w/v)): 18000 µg/mL
- solubility thermodynamic (physchem): ~24000 µg/mL
